This note sets out measurements from ChEMBL document CHEMBL1201862, “PubChem BioAssay data set” (2004).

Test systems include ACHN; HOP-62; HOP-92; HT-29; Hs-578T; KM12; LOX IMVI; M14; MDA-N; NCI-H23; NCI-H522; NCI/ADR-RES; PC-3; RPMI-8226; SK-MEL-5; SW-620; T47D; UO-31.
Assay in all cases: inhibition of tumour cell growth, NCI panel, 48 h

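Interpolation was linear, between the two tested concentrations surrounding the appropriate level; five concentrations were tested over 48 hours in 96-well plates. GI50 = concentration required for 50% inhibition of growth.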 The source made the active and inactive calls. Cut-off read from the data, not from the text of the source: active = GI50 up to about 1.1 µM and inactive = higher.

As for `C#CCOC(=O)C(N)CC(N)=O` (centres undefined), the GI50 with ACHN was > 100 µM (inactive); with HOP-62, > 100 µM (inactive); with HOP-92, > 100 µM (inactive); with HT-29, > 31.6 µM (inactive); with Hs-578T it was > 100 µM (inactive); in the assay on KM12 it was > 100 µM (inactive). Moreover, the GI50 in the assay with LOX IMVI, in the assay with M14, in the assay on MDA-N, in the assay on NCI-H23, in the assay with NCI-H522 and with NCI/ADR-RES was > 100 µM (inactive) throughout. Also, the GI50 with PC-3 is > 100 µM (inactive); in the assay on RPMI-8226, > 100 µM (inactive); in the assay on SK-MEL-5, > 100 µM (inactive); in the assay with SW-620, > 100 µM (inactive); in the assay on T47D it was > 69 µM (inactive); with UO-31 it was > 100 µM (inactive).
As to `COC(=O)/C=C\C(C#N)(C#N)/N=C/c1cccs1`, the GI50 in the assay on ACHN is 1.84 µM (inactive); with HOP-62, 17.6 µM (inactive); in the assay on HOP-92, 1.84 µM (inactive); in the assay on HT-29, 2 µM (inactive); in the assay with Hs-578T, 24.8 µM (inactive); in the assay on KM12 it was 17.2 µM (inactive). In addition, the GI50 is 2.34 µM (inactive) in the assay on LOX IMVI; 4.35 µM (inactive) in the assay on M14; 8.22 µM (inactive) in the assay on MDA-N; 9.14 µM (inactive) in the assay on NCI-H23; 0.783 µM (active) in the assay with NCI-H522; 18.4 µM (inactive) in the assay on NCI/ADR-RES. The GI50 with PC-3 is 13.1 µM (inactive); with RPMI-8226, 2.11 µM (inactive); with SK-MEL-5, 0.813 µM (active); in the assay with SW-620, 1.87 µM (inactive); in the assay with T47D it was 2.93 µM (inactive); in the assay with UO-31, 2.26 µM (inactive).
Consider `COc1cc(O)c2c(c1)C(O)C(O)CC1OC1C(=O)/C=C/CC(C)OC2=O` (centres undefined), for which the GI50 with ACHN was 3.2 µM (inactive); in the assay on HOP-62 it was 18 µM (inactive); with HOP-92 it was 0.354 µM (active); in the assay on HT-29, 0.0794 µM (active); with Hs-578T, 10 µM (inactive); in the assay on KM12, 10.4 µM (inactive). The GI50 was 3.88 µM (inactive) in the assay on LOX IMVI; 0.0933 µM (active) in the assay on M14; 0.454 µM (active) with MDA-N; 2.1 µM (inactive) in the assay with NCI-H23; 1.52 µM (inactive) with NCI-H522; 3.68 µM (inactive) with NCI/ADR-RES. The GI50 in the assay with PC-3 is 11.6 µM (inactive); in the assay with RPMI-8226, 3.1 µM (inactive); in the assay with SK-MEL-5, 1.64 µM (inactive); with SW-620, 0.412 µM (active); with T47D, 5.05 µM (inactive); in the assay with UO-31 it was 1.17 µM (inactive).
`C[C@H](CCC(=O)O)[C@H]1CC[C@H]2[C@@H]3[C@@H](O)C[C@@H]4C[C@H](O)CC[C@]4(C)[C@H]3CC[C@]12C`: the GI50 in the assay on ACHN is > 100 µM (inactive); in the assay with HOP-62, > 100 µM (inactive); with HOP-92 it was > 100 µM (inactive); in the assay with HT-29 it was > 100 µM (inactive); in the assay on Hs-578T it was 59.8 µM (inactive); in the assay with KM12, 60 µM (inactive). For the same compound, the GI50 in the assay with LOX IMVI is > 100 µM (inactive); with M14, 95.3 µM (inactive); in the assay on MDA-N, > 100 µM (inactive); with NCI-H23, 65.2 µM (inactive); in the assay on NCI-H522 it was > 100 µM (inactive); in the assay on NCI/ADR-RES it was 38.7 µM (inactive). The GI50 in the assay on PC-3 was 45.4 µM (inactive); in the assay on RPMI-8226 it was 38.1 µM (inactive); in the assay with SK-MEL-5, 62.1 µM (inactive); in the assay with SW-620 it was > 100 µM (inactive); in the assay on T47D it was > 100 µM (inactive); in the assay on UO-31, 57.5 µM (inactive).
For `CCCC#CCOC(=O)c1cc([N+](=O)[O-])cc([N+](=O)[O-])c1`, the GI50 in the assay with ACHN, in the assay on HOP-62, in the assay with HOP-92, in the assay with HT-29, with Hs-578T and in the assay with KM12 was > 100 µM (inactive) each time. Besides, the GI50 was > 100 µM (inactive) with LOX IMVI; > 100 µM (inactive) in the assay with M14; 47.3 µM (inactive) with MDA-N; > 100 µM (inactive) in the assay with NCI-H23; 43.4 µM (inactive) in the assay on NCI-H522; > 100 µM (inactive) with NCI/ADR-RES. Also, the GI50 is > 100 µM (inactive) in the assay on PC-3; > 100 µM (inactive) in the assay with RPMI-8226; 52 µM (inactive) in the assay on SK-MEL-5; > 100 µM (inactive) in the assay on SW-620; > 100 µM (inactive) in the assay on T47D; > 100 µM (inactive) in the assay on UO-31.
On to `C/C=C1/CN2CCC34c5ccccc5N(C)C23C2CC1C4(C(=O)OC)C(OC(C)=O)O2` (centres undefined), for which the GI50 with ACHN, in the assay with HOP-62, with HOP-92, with HT-29, in the assay with Hs-578T and with KM12 was > 100 µM (inactive) in each case. The GI50 in the assay with LOX IMVI, with M14, with MDA-N, in the assay on NCI-H23, in the assay with NCI-H522 and in the assay on NCI/ADR-RES was > 100 µM (inactive) each time. Also, the GI50 in the assay with PC-3, in the assay on RPMI-8226, with SK-MEL-5, in the assay on SW-620, in the assay on T47D and with UO-31 was > 100 µM (inactive) in each case.
Take `CCOC(=O)C(NCc1ccc2c(c1)OCO2)(NC(=O)c1ccccc1)C(F)(F)F` (centres undefined): the GI50 was > 100 µM (inactive) in the assay on ACHN; > 100 µM (inactive) with HOP-62; 41.9 µM (inactive) in the assay on HOP-92; > 100 µM (inactive) in the assay on HT-29; > 100 µM (inactive) in the assay with Hs-578T; 88.1 µM (inactive) in the assay on KM12. Besides, the GI50 with LOX IMVI is > 100 µM (inactive); in the assay on M14, > 100 µM (inactive); in the assay with MDA-N it was > 100 µM (inactive); in the assay on NCI-H23, 62.2 µM (inactive); in the assay with NCI-H522, 39.1 µM (inactive); in the assay with NCI/ADR-RES, 46.2 µM (inactive). Further, the GI50 with PC-3 was 65 µM (inactive); in the assay with RPMI-8226, 34.7 µM (inactive); with SK-MEL-5 it was > 100 µM (inactive); in the assay on SW-620 it was > 100 µM (inactive); in the assay on T47D it was 38.3 µM (inactive); in the assay with UO-31, 51.3 µM (inactive).
As to `CCNC(=S)N/N=C(/C)c1cccc(/C(C)=N\NC(=S)NCC)n1`, the GI50 was 0.562 µM (active) in the assay on ACHN; 1.11 µM (active) with HOP-62; 1.69 µM (inactive) in the assay on HOP-92; 0.315 µM (active) in the assay with HT-29; 13.8 µM (inactive) in the assay with Hs-578T; 0.593 µM (active) in the assay on KM12. In addition, the GI50 in the assay with LOX IMVI is 0.373 µM (active); in the assay with M14, 1.2 µM (inactive); in the assay on MDA-N, 1.23 µM (inactive); in the assay with NCI-H23 it was 4.06 µM (inactive); in the assay on NCI-H522, 1.15 µM (inactive); in the assay with NCI/ADR-RES, 0.748 µM (active). For the same compound, the GI50 is 0.614 µM (active) with PC-3; 0.847 µM (active) in the assay with RPMI-8226; 0.774 µM (active) with SK-MEL-5; 0.486 µM (active) in the assay with SW-620; 2.72 µM (inactive) in the assay on T47D; 0.968 µM (active) with UO-31.
